Test results reported in US20110212948A1 (priority 2008, published 2011).
Read-outs that look alike come from different tables or passages of the source.

Experiments:
[1] = Multiple dose study: veterinary examination, haematology and serum biochemistry; conditions: 0.6 mg/kg every 12 hours for 14 days; except serum cholesterol
Protocol: Six foals were available for inclusion in this part of the study and were randomly assigned to treatment (four foals) or control groups (two foals). […] To ensure foals were recruited into the study within 4 weeks of birth, the study was performed twice, with 2 treated and one control foal in each replicate.
Foals were examined twice daily for the duration of the study. Staff responsible for veterinary examination of foals were blinded to treatment.
Peripheral blood samples were submitted for routine haematology and serum biochemistry at a commercial laboratory (Idexx Laboratories, Rydalmere, NSW) twice weekly (treatment days 0, 2, 6, 9, 13 and 16). Gastroscopy and urine analysis (Dip Stik and urine enzyme analysis1) were performed weekly on all foals.

[2] = current study, foals, single oral dose 0.6 mg/kg, mean ± SD
[3] = in vivo, 0.6 mg/kg
[4] = adult horses, cited from earlier work
[5] = Multiple dose study: gastroscopy; type: in vivo, foals
[6] = adult horses, cited from earlier work; remark: listed apart in the source
[7] = Faecal occult blood testing with guaiac-based slides (Hemoccult Sensa); type: in vivo; conditions: treated and control foals, all occasions
Protocol: Faecal occult blood testing using guaiac-based slides (Hemoccult Sensa, Beckman Coulter Australia Pty Ltd, Gladesville, NSW) was evaluated for the detection of gastrointestinal bleeding in treated and control foals. This technique has been reported as a sensitive method for identifying gastric or right dorsal colon ulceration in adult horses (Pellegrini 2005). Faecal samples were collected on DSP days from all foals and processed according to the manufacturer's instructions. Tests were negative for blood (haemoglobin) on all occasions.

[8] = Multiple dose study: peak and trough plasma meloxicam concentrations; type: in vivo, foals
Protocol: Blood for ‘trough’ serum levels was collected from foals immediately prior to administration of morning treatment. ‘Peak’ plasma concentrations were determined from blood samples collected 2 hours following administration of the morning treatment (as per the schedule above).

[9] = Bioequivalence study (CML039) Reference
[10] = Bioequivalence study (CML039) Test

Cc1cnc(NC(=O)C2=C(O)c3ccccc3S(=O)(=O)N2C)s1 [meloxicam]
Haematology and serum biochemistry, treated vs control foals [1]: no significant differences | Area under curve [2]: 3870.3 ng/mL/h | Adverse effects after a single oral dose (physical examination) [3]: no adverse effects | Albumin, mean post-Tx (±sem) ([3]; po): 29 (±1) g/L | Creatinine, median post-Tx ([3]; po): 0.09 mmol/L | Glucose, mean post-Tx (±sem) ([3]; po): 8.8 (±0.6) mmol/L | Haemoglobin, mean post-Tx (±sem) ([3]; po): 123 (±4) g/L | PCV, mean post-Tx (±sem) ([3]; po): 35 (±1) % | Potassium, median post-Tx ([3]; po): 4.0 mmol/L | Sodium, mean post-Tx (±sem) ([3]; po): 138 (±1) mmol/L | Urea, mean post-Tx (±sem) ([3]; po): 2.1 (±0.1) mmol/L | Cmax ([4]; Lees et al 1991 (IV administration)): 9230 ng/mL | Area under curve ([4]; Lees et al 1991): 14530 ng/mL/h | Cmax ([4]; Little et al 2007 (IV administration)): 9780 ng/mL | Area under curve ([4]; Little et al 2007): 33440 ng/mL/h | Cmax (oral admin) ([4]; Toutain et al 2004b): 2580 ng/mL | Bioavailability (fasted) ([4]; fasted, Toutain et al 2004b): 85.3 | Bioavailability (fed) ([4]; fed, Toutain et al 2004b): 95.9 | Gastroscopy finding, margo plicatus of a treated foal (FIG. 18) ([5]; Day 7 of multiple dose study): normal margo plicatus | Gastroscopy finding, treated foal F8 (FIG. 21) ([5]; Day 7 of multiple dose study, erythemia already present before single dose): superficial erosions of squamous mucosa | Gastroscopy finding, margo plicatus of same treated foal (FIG. 19) ([5]; Day 14 of multiple dose study): small, well circumscribed and very superficial ulcer | Gastric mucosal damage on gastroscopic examination ([5]; all foals, 0.6 mg/kg every 12 hours for 14 days): failed to identify evidence of significant gastric mucosal damage | Gastroscopy finding, treated foal F8 (FIG. 22) ([5]; following 14 days of treatment): no evidence of ongoing mucosal ulceration | Area under curve [6, 9]: 10752.4 ng/mL/h | Cmax (oral admin) [6, 9]: 777.5 ng/mL | Tmax (oral admin) [6, 9]: 3.8 h | Area under curve [6, 10]: 11281.0 ng/mL/h | Tmax (oral admin) [6, 10]: 2.6 h | Faecal occult blood (haemoglobin) [7]: negative | Accumulation of drug in serum ([8]; foals, 0.6 mg/kg by mouth every 12 hours for 14 days): did not appear to accumulate | concentration at 14 days ([8]; horse, in vivo, foals less than 6 weeks, 0.6 mg/kg by mouth every 12 hours): 100 to 1000 ng/mL | concentration at 2 h ([8]; horse, in vivo, foals, 0.6 mg/kg by mouth every 12 hours for 14 days, 2 h after morning dose, read-out: Peak serum concentrations with repeated dosing): 500 to 1200 ng/mL
